Assay results: publication PMC9786103, “Potent and Selective Inhibition of CYP1A2 Enzyme by Obtusifolin and Its Chemopreventive Effects” (Pharmaceutics, 2022)

How the values were obtained:
Type in all cases: biochemical
rCYP1A2 = target: T1, rCYP1A2 (Homo sapiens, UniProt P05177); test: Ethoxyresorufin O-deethylation (EROD) in recombinant CYP1A2; settings: rCYP1A2 10 pmol/mL, 7-ethoxyresorufin 2 µM, 20 min; read-out: IC50, CYP1A2-mediated EROD
T1 construct: purchased SPMED (Busan, Republic of Korea)
T1 sequence (P05177 1-516): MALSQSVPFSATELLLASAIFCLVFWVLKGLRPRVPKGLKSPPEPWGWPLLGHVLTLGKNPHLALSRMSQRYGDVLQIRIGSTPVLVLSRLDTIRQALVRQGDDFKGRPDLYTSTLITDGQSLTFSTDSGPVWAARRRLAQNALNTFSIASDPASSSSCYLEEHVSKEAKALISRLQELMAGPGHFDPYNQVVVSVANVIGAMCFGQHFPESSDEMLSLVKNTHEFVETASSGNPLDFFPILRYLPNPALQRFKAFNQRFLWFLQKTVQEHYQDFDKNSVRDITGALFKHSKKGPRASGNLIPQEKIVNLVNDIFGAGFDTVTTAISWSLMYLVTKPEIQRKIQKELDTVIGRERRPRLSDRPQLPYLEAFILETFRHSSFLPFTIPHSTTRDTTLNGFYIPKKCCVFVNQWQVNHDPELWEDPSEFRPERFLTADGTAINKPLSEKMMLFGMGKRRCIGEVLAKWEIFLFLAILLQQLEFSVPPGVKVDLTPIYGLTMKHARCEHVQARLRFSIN
Protocol: The inhibitory effects of obtusifolin on the CYP1A-mediated ethoxyresorufin O-deethylation (EROD) activity of rCYP1A1 and rCYP1A2 enzymes (10 pmol/mL) were investigated. […] The other conditions, except for the incubation time (20 min), were similar to those used in the P450 inhibition study, as described earlier.

other P450s = test: Inhibition of other P450s in human liver microsomes (summary); settings: HLMs, P450s other than CYP1A2; read-out: IC50 against other P450s
Text: The inhibitory potential of obtusifolin against the biotransformation of eight P450 probe substrates was examined using previously reported methods with slight changes [21, 22]. The following P450 isoform-specific substrates were used: coumarin (CYP2A6); bupropion (CYP2B6); amodiaquine (CYP2C8); tolbutamide (CYP2C9); omeprazole (CYP2C19); dextromethorphan (CYP2D6); chlorzoxazone (CYP2E1); and midazolam (CYP3A). Mixtures of pooled HLM, P450 substrates, and obtusifolin (0, 0.05, 0.2, 0.5, 2, 5, or 10 µM for CYP1A2; and 0, 0.5, 2, 5, 20, or 50 µM for the other P450 isoforms) were pre-incubated (5 min, 37 °C). NGS was introduced to start the reaction, which was followed by an additional incubation (15 min). Following reaction termination, aliquots of the supernatants were analyzed with LC-MS/MS.

CYP2C19 = target: T2, CYP2C19 (Homo sapiens, UniProt P33261); test: Omeprazole 4-hydroxylation in human liver microsomes; settings: HLMs
T2 construct: Mixtures of pooled HLM, P450 substrates, and obtusifolin; tissue XenoTech XTreme 200; host or cells: pooled human liver microsomes
T2 sequence (P33261 whole entry): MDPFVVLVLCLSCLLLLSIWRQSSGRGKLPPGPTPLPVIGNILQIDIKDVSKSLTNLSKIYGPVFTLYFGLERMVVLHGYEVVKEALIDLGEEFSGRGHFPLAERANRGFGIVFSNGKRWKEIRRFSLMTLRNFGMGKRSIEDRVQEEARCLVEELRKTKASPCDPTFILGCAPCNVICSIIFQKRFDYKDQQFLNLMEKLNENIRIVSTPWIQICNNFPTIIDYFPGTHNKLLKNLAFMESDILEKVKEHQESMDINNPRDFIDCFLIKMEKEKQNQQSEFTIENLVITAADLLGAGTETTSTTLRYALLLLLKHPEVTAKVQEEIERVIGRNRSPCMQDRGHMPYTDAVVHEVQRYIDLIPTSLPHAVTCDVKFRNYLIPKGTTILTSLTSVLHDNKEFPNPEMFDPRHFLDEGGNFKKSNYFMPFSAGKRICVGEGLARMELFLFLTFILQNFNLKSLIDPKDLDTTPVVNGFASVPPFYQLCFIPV
Protocol: (§1) The following P450 isoform-specific substrates were used: coumarin (CYP2A6); bupropion (CYP2B6); amodiaquine (CYP2C8); tolbutamide (CYP2C9); omeprazole (CYP2C19); dextromethorphan (CYP2D6); chlorzoxazone (CYP2E1); and midazolam (CYP3A). […] NGS was introduced to start the reaction, which was followed by an additional incubation (15 min). Following reaction termination, aliquots of the supernatants were analyzed with LC-MS/MS.
(§2) Reverse phase column (Kinetex XB-C18, 100 × 2.10 mm; Phenomenex, Torrance, CA, USA) and triple-quadrupole mass spectrometer (LCMS 8060, Shimadzu, Kyoto, Japan) with an ultra high-performance LC system (Nexera X2, Shimadzu) analyze all the metabolites. […] For each metabolite, quantitation was carried out in selected reaction monitoring (SRM) mode using the following precursor-to-product ion transition: m/z 152 > 110 for acetaminophen (CYP1A2), m/z 214 > 186 for resorufin (CYP1A1 and CYP1A2), m/z 163 > 107 for 7-hydroxycoumarin (CYP2A6), m/z 256 > 238 for 6-hydroxybupropion (CYP2B6), m/z 328 > 283 for N-desethylamodiaquine (CYP2C8), m/z 287 > 89 for 5-hydroxytolbutamide (CYP2C9), m/z 362 > 214 for 4-hydroxyomeprazole (CYP2C9), m/z 258 > 157 for dextrorphan (CYP2D6), m/z 184 > 120 for 6-hydroxychlorzoxazone (CYP2E1), m/z 342 > 203 for 1′-hydroxymidazolam (CYP3A), and m/z 295 > 100 for trimipramine (IS) [23, 24].

CYP2A6 = target: T3, CYP2A6 (Homo sapiens, UniProt P11509); test: Coumarin 7-hydroxylation in human liver microsomes; settings: HLMs
T3 construct: Mixtures of pooled HLM, P450 substrates, and obtusifolin; tissue XenoTech XTreme 200; host or cells: pooled human liver microsomes
T3 sequence (P11509 1-494): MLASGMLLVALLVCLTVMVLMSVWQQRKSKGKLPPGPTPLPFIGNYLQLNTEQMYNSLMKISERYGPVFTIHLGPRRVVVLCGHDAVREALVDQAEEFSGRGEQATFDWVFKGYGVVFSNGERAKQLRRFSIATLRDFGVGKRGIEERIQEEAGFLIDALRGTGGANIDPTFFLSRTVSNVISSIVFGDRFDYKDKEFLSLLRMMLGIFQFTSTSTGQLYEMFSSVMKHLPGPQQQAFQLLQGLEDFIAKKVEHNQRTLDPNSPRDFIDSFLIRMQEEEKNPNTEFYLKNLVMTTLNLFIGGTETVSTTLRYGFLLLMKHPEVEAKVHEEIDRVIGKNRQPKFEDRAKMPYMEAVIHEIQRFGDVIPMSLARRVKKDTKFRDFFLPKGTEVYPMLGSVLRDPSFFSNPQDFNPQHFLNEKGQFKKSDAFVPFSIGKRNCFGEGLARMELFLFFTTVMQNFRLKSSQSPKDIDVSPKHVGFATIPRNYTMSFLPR
Protocol: as §1, §2

CYP2C8 = target: T4, CYP2C8 (Homo sapiens, UniProt P10632); test: Amodiaquine N-deethylation in human liver microsomes; settings: HLMs
T4 construct: Mixtures of pooled HLM, P450 substrates, and obtusifolin; tissue XenoTech XTreme 200; host or cells: pooled human liver microsomes
T4 sequence (P10632 1-490): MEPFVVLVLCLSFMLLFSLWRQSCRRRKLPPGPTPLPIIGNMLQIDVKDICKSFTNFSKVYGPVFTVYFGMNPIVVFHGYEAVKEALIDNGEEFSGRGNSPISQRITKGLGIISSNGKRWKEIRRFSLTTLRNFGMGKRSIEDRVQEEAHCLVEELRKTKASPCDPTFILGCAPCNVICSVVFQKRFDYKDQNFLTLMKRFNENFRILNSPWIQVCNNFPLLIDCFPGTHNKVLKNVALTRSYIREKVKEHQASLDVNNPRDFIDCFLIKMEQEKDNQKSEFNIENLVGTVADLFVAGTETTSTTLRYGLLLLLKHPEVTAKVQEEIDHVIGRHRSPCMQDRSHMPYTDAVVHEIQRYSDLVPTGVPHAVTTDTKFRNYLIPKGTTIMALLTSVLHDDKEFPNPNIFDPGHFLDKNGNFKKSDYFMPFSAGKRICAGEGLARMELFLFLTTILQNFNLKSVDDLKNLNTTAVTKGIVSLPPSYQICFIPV
Protocol: as §1, §2

CYP3A = CYP3A (Homo sapiens, UniProt P08684); test: Midazolam 1'-hydroxylation in human liver microsomes; settings: pooled human liver microsomes, probe midazolam, HLMs
Chain of CYP3A (P08684 2-503): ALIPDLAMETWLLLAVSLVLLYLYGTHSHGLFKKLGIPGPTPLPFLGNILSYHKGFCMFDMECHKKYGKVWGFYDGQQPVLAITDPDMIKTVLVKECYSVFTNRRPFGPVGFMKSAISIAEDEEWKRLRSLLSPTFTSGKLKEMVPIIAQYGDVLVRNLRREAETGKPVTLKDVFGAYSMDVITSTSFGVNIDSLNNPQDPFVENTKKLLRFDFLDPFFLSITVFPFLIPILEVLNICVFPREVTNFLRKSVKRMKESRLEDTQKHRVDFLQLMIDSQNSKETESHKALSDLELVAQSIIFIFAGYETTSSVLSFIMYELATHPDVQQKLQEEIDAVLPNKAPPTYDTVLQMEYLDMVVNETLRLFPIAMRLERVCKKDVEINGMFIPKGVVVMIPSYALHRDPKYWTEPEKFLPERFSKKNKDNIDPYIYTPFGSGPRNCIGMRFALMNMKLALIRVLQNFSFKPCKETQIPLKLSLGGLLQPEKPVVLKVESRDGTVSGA
Protocol: as §1, §2

COc1c(O)c(C)cc2c1C(=O)c1c(O)cccc1C2=O [Obtusifolin, obtusifolin]
IC50 (rCYP1A2): 570 ± 110 nM
IC50 (other P450s): > 28.6 µM
IC50 (CYP2C19): > 50 µM
IC50 (CYP2A6): > 50 µM
IC50 (CYP2C8): 31.4 µM
IC50 at 15 min (CYP3A): > 50 µM
